Measurements as given in article PMC12610274, “Identification of Marrubiin as a Cathepsin C Inhibitor for Treating Rheumatoid Arthritis” (Molecules, 2025).

Columns and labels:
CTSK = biological target: T1, CTSK (Homo sapiens, UniProt P43235); assay: Human recombinant cathepsins isolated enzyme assay, CTSK; assay type: biochemical; conditions: read-out: CTSK Enz (IC50: μM)
T1 construct: purchased R&D Systems
From the text: (§1) The protocol for evaluating the inhibitory potency of compounds against other cathepsins referred to the CTSC activity assay. Recombinant human CTSB, CTSL, CTSS and CTSK for testing were also purchased from R&D Systems Biotechnology Company. Recombinant human Cat G, NE, and PR3 For testing were purchased from MedChemExpress. A multi-functional microplate reader was used to measure the absorption of Z-Leu-Arg-AMC at excitation/emission wavelengths of 380/460 nm to assess the activity changes of CTSB and CTSL, while the absorption of MCA-Arg-Pro-Lys-Pro-Val-Glu-NVAL-Trp-Arg-Lys(DNP)-NH2 at 320/405 nm was measured to evaluate the activity changes of CTSS and CTSK. Different assay buffers were prepared for diluting samples and measuring the activities of specific NSPs: a buffer containing 50 mM Tris and 750 mM NaCl (pH 7.4) was used for NE and PR3; a buffer containing 50 mM Tris, 750 mM NaCl, 5 mM EDTA (pH 7.4) was used for Cat G; and a buffer containing 25 mM MES, 50 mM NaCl, 5 mM DTT (pH 6.0) was used for CTSC. Synthetic substrates were employed to assess the activities of NSPs and CTSC: H-Gly-Arg-AMC for CTSC, N-MeSuc-Ala-Ala-Pro-Val-pNA for NE, aminobenzoyl-Val-Ala-Asp-Cys-Ala-Asp-Gln-ethylenediamine 2,4-dinitrophenyl for PR3, and N-Suc-Ala-Ala-Pro-Phe-pNA for Cat G. Each group of tests was independently repeated at least 3 times, and IC50 values were calculated using SPSS 10.0.

Cat G = biological target: T2, Cat G (Homo sapiens, UniProt P08311); assay: Recombinant NSPs isolated enzyme assay, Cat G; assay type: biochemical; conditions: read-out: Cat G Enz (IC50: μM)
T2 construct: purchased MedChemExpress
From the text: as §1

NE = assay: NSPs activity in U937 cells after 5 days of treatment, NE; assay type: cell-based, human; conditions: U937, 10 μM
Experimental: U937 cells in the logarithmic growth phase were collected and equally divided into six portions. Four of these portions were treated with DMSO solutions of the test compound at varying concentrations to achieve final concentrations of 1.25, 2.5, 5, and 10 μM, respectively. An equal volume of DMSO was added to one portion as a blank control, while another portion treated with a DMSO solution of AZD7986 served as a positive control. The cells were cultured under standard U937 conditions for 5 consecutive days, with daily medium changes and fresh compound treatments administered using the same protocol. Following 5 days of treatment, cells were harvested, washed twice thoroughly with phosphate-buffered saline, and lysed in phosphate-buffered saline containing 1% Triton X-100. The lysates were centrifuged to collect the supernatant, and protein concentrations were determined as previously described to ensure equal total protein loading across all samples. The prepared samples were stored at −20 °C until further analysis. Different assay buffers were prepared for diluting samples and measuring the activities of specific NSPs: a buffer containing 50 mM Tris and 750 mM NaCl (pH 7.4) was used for NE and PR3; a buffer containing 50 mM Tris, 750 mM NaCl, 5 mM EDTA (pH 7.4) was used for Cat G; and a buffer containing 25 mM MES, 50 mM NaCl, 5 mM DTT (pH 6.0) was used for CTSC. […]

CTSC = biological target: T3, CTSC (Mus musculus, UniProt P97821); assay: CTSC activity in blood and bone marrow of mice; assay type: in vivo, C57BL/6 mice; conditions: 30 mg/kg daily gavage, 7 days
T3 construct: from tissue; host or cells: mouse blood and bone marrow lysates
Experimental: A total of 25 C57BL/6 mice (6–8 weeks old, weighing approximately 20 g, with equal numbers of males and females) were randomly divided into five groups. Mice in the compound-treated groups were orally administered the compound once daily at doses of 0.3, 3, and 30 mg/kg for 7 consecutive days. […] Mice in the normal group were given an equal volume of normal saline at the same time points. The body weight, death rate, and behavior were observed and recorded daily for one week. After 7 days, bone marrow and blood samples were collected from the mice and lysed using 8% Triton X-100 buffer. The lysates were stored at −20 °C until testing. The activity assays for CTSC and NSPs were performed as described above. The mice were anesthetized and the tissues were taken for H&E staining.

AIA model = assay: Adjuvant-induced arthritis (AIA) model, disease severity; assay type: in vivo, Sprague-Dawley rats; conditions: rat AIA
Experimental: (§2) Thirty 4-week-old male Sprague-Dawley rats (weighing 120–130 g) were randomly divided into 6 groups (5 rats per group) after 1 week of adaptive feeding, namely the normal group, model group, low-dose experimental group (15 mg/kg), medium-dose experimental group (30 mg/kg), high-dose experimental group (60 mg/kg), and positive control group (30 mg/kg). Starting from Day 0 of the experiment, rats in the administration groups and model group were injected intradermally with 0.1 mL of CFA into the left hind paw to induce AIA, while rats in the normal group were injected intradermally with an equal volume (0.1 mL) of normal saline as a control. After 13 consecutive days of feeding, rats treated with CFA successfully developed typical AIA symptoms. […] During the experiment, the body weight, mental state, activity ability, hair color changes, and paw appearance changes of the rats were observed and recorded daily. In addition, on Day 0 of the experiment (baseline period), the basic paw volume of all rats was accurately measured using a plethysmometer, which served as a reference standard for subsequent evaluation of inflammation severity. From Day 13 to Day 28 of the experiment, the paw volume of the rats was measured repeatedly every 3 days. The degree of paw swelling was quantified by calculating the change in paw volume relative to the baseline. Meanwhile, the arthritis index score was calculated based on the range of paw redness and swelling, the severity of swelling, and the degree of limb movement limitation, so as to comprehensively evaluate the inflammatory state. On Day 28 of the experiment (the end of the administration cycle), blood samples were collected via abdominal aortic puncture. The blood samples were centrifuged at 3000 rpm for 20 min, and the upper serum was collected and stored at −20 °C for subsequent detection. The rats were then sacrificed, and their ankle joint tissues were harvested for subsequent pathological section observation and analysis. The cytokine levels in serum were measured. The activity detection of CTSC and NSPs was carried out according to the above methods.

CTSC and NSPs = assay: AIA model, serum CTSC and NSPs activities, stated together; assay type: in vivo, Sprague-Dawley rats; conditions: rat AIA, low-dose (15 mg/kg) and medium-dose (30 mg/kg) groups
Experimental: as §2, with “Meanwhile, the arthritis index score was calculated based on the range of paw redness and swelling, the severity of swelling, and the degree of limb movement limitation, so as to comprehensively evaluate the inflammatory state. On Day 28 of the experiment (the end of the administration cycle), blood samples were collected via abdominal aortic puncture. The blood samples were centrifuged at 3000 rpm for 20 min, and the upper serum was collected and stored at −20 °C for subsequent detection. The rats were then sacrificed, and their ankle joint tissues were harvested for subsequent pathological section observation and analysis.” left out, “The activity detection of CTSC and NSPs was carried out according to the above methods.” left out

PR3 = assay: AIA model, serum PR3 activity; assay type: in vivo, Sprague-Dawley rats; conditions: rat AIA, high dose 60 mg/kg gavage, 15 days
Experimental: as §2, with “Meanwhile, the arthritis index score was calculated based on the range of paw redness and swelling, the severity of swelling, and the degree of limb movement limitation, so as to comprehensively evaluate the inflammatory state. On Day 28 of the experiment (the end of the administration cycle), blood samples were collected via abdominal aortic puncture. The blood samples were centrifuged at 3000 rpm for 20 min, and the upper serum was collected and stored at −20 °C for subsequent detection. The rats were then sacrificed, and their ankle joint tissues were harvested for subsequent pathological section observation and analysis.” left out, “The activity detection of CTSC and NSPs was carried out according to the above methods.” left out

T3 sequence (P97821 25-462): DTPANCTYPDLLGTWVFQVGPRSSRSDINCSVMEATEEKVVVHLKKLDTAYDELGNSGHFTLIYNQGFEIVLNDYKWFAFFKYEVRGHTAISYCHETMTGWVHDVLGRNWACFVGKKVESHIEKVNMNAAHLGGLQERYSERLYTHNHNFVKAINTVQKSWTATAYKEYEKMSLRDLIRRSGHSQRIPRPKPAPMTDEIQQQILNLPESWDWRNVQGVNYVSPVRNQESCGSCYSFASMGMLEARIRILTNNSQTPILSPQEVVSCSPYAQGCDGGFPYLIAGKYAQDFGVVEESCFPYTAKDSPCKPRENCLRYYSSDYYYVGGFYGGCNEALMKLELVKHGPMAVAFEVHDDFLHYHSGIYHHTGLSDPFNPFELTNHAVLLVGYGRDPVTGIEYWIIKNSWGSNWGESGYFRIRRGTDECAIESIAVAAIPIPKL
T2 sequence (P08311 21-255): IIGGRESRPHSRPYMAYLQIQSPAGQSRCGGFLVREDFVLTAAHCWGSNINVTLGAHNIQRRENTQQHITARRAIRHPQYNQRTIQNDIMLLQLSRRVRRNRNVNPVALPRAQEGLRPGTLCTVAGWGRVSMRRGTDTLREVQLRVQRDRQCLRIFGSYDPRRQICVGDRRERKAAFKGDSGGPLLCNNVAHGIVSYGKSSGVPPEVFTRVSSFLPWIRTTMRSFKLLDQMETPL
T1 sequence (P43235 115-329): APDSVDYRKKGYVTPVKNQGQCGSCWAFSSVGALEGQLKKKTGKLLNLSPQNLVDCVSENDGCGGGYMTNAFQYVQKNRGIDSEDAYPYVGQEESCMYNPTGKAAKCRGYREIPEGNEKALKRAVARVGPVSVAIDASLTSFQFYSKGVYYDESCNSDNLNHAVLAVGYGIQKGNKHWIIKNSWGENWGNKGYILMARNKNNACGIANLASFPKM

C[C@@H]1C[C@H]2OC(=O)[C@@]3(C)CCC[C@@](C)([C@@H]23)[C@@]1(O)CCc1ccoc1 [Marrubiin, marrubiin]
IC50 (CTSK): > 5 µM
IC50 (Cat G): > 10 µM
NE activity, % of DMSO group (NE): 8.2%
remaining activity rate of CTSC (CTSC; blood): ~25.5%
remaining activity rate of CTSC (CTSC; bone marrow): approximately 15.5%
clinical score vs AIA model group (AIA model; 60 mg/kg gavage, from day 16 onwards): significantly lower than those of AIA model group
body weight recovery (AIA model; 60 mg/kg, from day 16 onwards): most significant weight recovery effects
histopathology of ankle joints (H&E, Safranin O/Fast Green) (AIA model; different doses (15, 30, 60 mg/kg)): reduced the histopathological statement
volume and thickness of inflamed paws (AIA model; different doses (15, 30, 60 mg/kg), days 16 to 28): continuous reduction in volume and a gradual decrease in thickness
serum activities of CTSC and NSPs (CTSC and NSPs): no significant reduction effect
serum PR3 activity, % of control group (PR3): ~50%
